From US20120214830A1, “BIOLOGICAL MARKERS PREDICTIVE OF ANTI-CANCER RESPONSE TO INSULIN-LIKE GROWTH FACTOR-1 RECEPTOR KINASE INHIBITORS IN HEPATOCELLULAR CARCINOMA” (OSI Pharmaceuticals, LLC, priority 2011, published 2012) come the findings set out here.

In general, inhibition refers to the relative decrease from the control value, in per cent. What is called EC50 is the concentration at which the effect is half-maximal. The low end stands for an effect from little substance, the high end for a need for much substance.

Some results are limits rather than exact numbers.

One assay has as its system HLE. Briefly: Cell Titer-Glo proliferation assay, 72 h. The settings on record: Homo sapiens, HLE cells. It counts as cell-based. The procedure: (§1) Cell lines: Twenty-one HCC cell lines were purchased from either ATCC (HepG2, Hep3B, PLC/PRF/5, SK-Hepl, SNU-182, SNU-387, SNU-398, SNU-423, SNU-449, SNU-475) or Health Science Research Resources Bank (Japan) (HUH-1, HUH-6, HUH-7, HLE, HLF, JHH-1, JHH-2, JHH-4, JHH-5, JHH-6, JHH-7). All the cell lines were maintained in media as described by the vendors. For growth inhibition assays, cells were plated and allowed to proliferate for 24 hours. After 24 hours, cells had reached approximately 15% confluency, at which time serial dilutions of OSI-906 were added and the cells grown for a further 72 hours. Cell viability was assayed using the Cell Titer-Glo reagent (Promega Corp., Madison, Wis.). Proliferation Assay. Proliferation was assayed using Cell Titer Glo assays (Promega) and was determined 72 hours following dosing with OSI-906. The basis of the assay is a luminescent quantitation of ATP present in a cell culture plate well. In essence, the greater the number of viable cells in the well, the greater the level of ATP present. The assay utilizes a substrate that binds ATP to produce a luminescent signal, which can be read on a luminometer. Unless otherwise noted, the manufacturer's instructions were followed exactly. Briefly, on Day 1, cells were plated in […] of 10% serum-containing growth media at a density of 4000 cells/well in a white polystyrene 96 well assay plate. On day 2, cells were treated with 15 μl of 10× concentration of the IGF-1R inhibitor (e.g. OSI-906) or DMSO alone for a final well volume of 150 μl. After 72 h incubation with the inhibitor, the cells were assayed. Results were calculated as a fraction of the DMSO controlled cells.

A further assay deals with Hep G2. The experiment in a line: Cell Titer-Glo proliferation assay, 72 h. It counts as cell-based. The settings on record: Homo sapiens, HepG2, Hep G2 cells. The procedure: as §1
A general note: In ATP-based viability assays light output follows the ATP content of the culture.

The next assay concerns Huh-1. Briefly: Cell Titer-Glo proliferation assay, 72 h. It counts as cell-based. The settings on record: Homo sapiens, Huh-1 cells. The procedure:
as §1

Another assay has as its system JHH-5. The experiment in a line: Cell Titer-Glo proliferation assay, 72 h. The settings on record: Homo sapiens, JHH-5 cells. The class given is cell-based. The procedure:
as §1

Another assay deals with SK Hep-1. Briefly: Cell Titer-Glo proliferation assay, 72 h. The class given is cell-based. The settings on record: Homo sapiens, SK-HEP1, SK Hep-1 cells. The procedure: as §1
The test system of another assay is SNU-387. Briefly: Cell Titer-Glo proliferation assay, 72 h. It counts as cell-based. The settings on record: Homo sapiens, SNU-387 cells. The procedure: as §1
The next assay relates to SNU-449. Briefly: Cell Titer-Glo proliferation assay, 72 h. The class given is cell-based. To be noted: Homo sapiens, SNU-449 cells. The procedure:
as §1

The subject of the next assay is SNU-475. The experiment in a line: Cell Titer-Glo proliferation assay, 72 h. The class given is cell-based. The settings on record: Homo sapiens, SNU-475 cells. As to the method: as §1
The subject of assay [1] is HCC cell lines (HepG2, Hep3B, HUH-1, HUH-6, HUH-7, JHH-5, JHH-7). The experiment in a line: Cell-titer glo proliferation assay, summary for the seven sensitive HCC cell lines. It counts as cell-based, human. As to the method: Cell lines: Twenty-one HCC cell lines were purchased from either ATCC (HepG2, Hep3B, PLC/PRF/5, SK-Hepl, SNU-182, SNU-387, SNU-398, SNU-423, SNU-449, SNU-475) or Health Science Research Resources Bank (Japan) (HUH-1, HUH-6, HUH-7, HLE, HLF, JHH-1, JHH-2, JHH-4, JHH-5, JHH-6, JHH-7). All the cell lines were maintained in media as described by the vendors. For growth inhibition assays, cells were plated and allowed to proliferate for 24 hours. After 24 hours, cells had reached approximately 15% confluency, at which time serial dilutions of OSI-906 were added and the cells grown for a further 72 hours. Cell viability was assayed using the Cell Titer-Glo reagent (Promega Corp., Madison, Wis.).
Proliferation Assay. Proliferation was assayed using Cell Titer Glo assays (Promega) and was determined 72 hours following dosing with OSI-906. The basis of the assay is a luminescent quantitation of ATP present in a cell culture plate well. […] The assay utilizes a substrate that binds ATP to produce a luminescent signal, which can be read on a luminometer. […] Results were calculated as a fraction of the DMSO controlled cells.
To test cell sensitivity of HCC cells to the IGF-1R kinase inhibitor OSI-906, twenty-one HCC cell lines were treated with different concentration of OSI-906, and cell proliferation was measured by cell-titer glo assays (FIG. 1). […]

As to `C[C@]1(O)C[C@@H](c2nc(-c3ccc4ccc(-c5ccccc5)nc4c3)c3c(N)nccn32)C1` [OSI-906, cis-3-[8-amino-1-(2-phenyl-quinolin-7-yl)-imidazo[1,5-a]pyrazin-3-yl]-1-methyl-cyclobutanol], the inhibition at 5 µM is less than 40% in the assay with HLE (5 μM OSI-906, 72 h); 77% with Hep G2 (5 μM OSI-906, 72 h); 74% with Huh-1 (5 μM OSI-906, 72 h); 80% with JHH-5 (5 μM OSI-906, 72 h); less than 40% in the assay with SK Hep-1 (5 μM OSI-906, 72 h); less than 40% with SNU-387 (5 μM OSI-906, 72 h). Further, the inhibition at 5 µM is less than 40% in the assay on SNU-449 (5 μM OSI-906, 72 h) and less than 40% with SNU-475 (5 μM OSI-906, 72 h). Moreover, the EC50 with HLE (72 h OSI-906) was greater than 10000 nM; with Hep G2 (72 h OSI-906) it was 220 nM; in the assay on Huh-1 (72 h OSI-906), 180 nM; with JHH-5 (72 h OSI-906), 190 nM; in the assay on SK Hep-1 (72 h OSI-906), greater than 10000 nM; with SNU-387 (72 h OSI-906), greater than 10000 nM. The EC50 is greater than 10000 nM in the assay with SNU-449 (72 h OSI-906), greater than 10000 nM with SNU-475 (72 h OSI-906) and less than 1000 nM in assay [1] (Homo sapiens). The molecule further came in with a maximum inhibition in [1] greater than 40%.
